Reference: publication PMC6743424, “Phenolic acid phenethylesters and their corresponding ketones: Inhibition of 5‐lipoxygenase and stability in human blood and HepaRG cells” (Pharmacology Research & Perspectives, 2019)
pIC50: −log10 of the molar value. Entries after “also recorded” stand apart in the source; their conditions may differ.

Columns and labels:
[1] = target: T1, 5‐LO (Homo sapiens, UniProt P09917); assay: Biosynthesis of 5‐LO products in stimulated HEK293 cells expressing 5‐LO and FLAP; assay type: cell-based; parameters: expressed in transfected cells; host or cells: HEK293 cells (ATCC), stably transfected; conditions: 1 μmol/L, 5 min preincubation; 10 μmol/L A23187 + 10 μmol/L arachidonic acid 15 min
T1 sequence (P09917 1-674): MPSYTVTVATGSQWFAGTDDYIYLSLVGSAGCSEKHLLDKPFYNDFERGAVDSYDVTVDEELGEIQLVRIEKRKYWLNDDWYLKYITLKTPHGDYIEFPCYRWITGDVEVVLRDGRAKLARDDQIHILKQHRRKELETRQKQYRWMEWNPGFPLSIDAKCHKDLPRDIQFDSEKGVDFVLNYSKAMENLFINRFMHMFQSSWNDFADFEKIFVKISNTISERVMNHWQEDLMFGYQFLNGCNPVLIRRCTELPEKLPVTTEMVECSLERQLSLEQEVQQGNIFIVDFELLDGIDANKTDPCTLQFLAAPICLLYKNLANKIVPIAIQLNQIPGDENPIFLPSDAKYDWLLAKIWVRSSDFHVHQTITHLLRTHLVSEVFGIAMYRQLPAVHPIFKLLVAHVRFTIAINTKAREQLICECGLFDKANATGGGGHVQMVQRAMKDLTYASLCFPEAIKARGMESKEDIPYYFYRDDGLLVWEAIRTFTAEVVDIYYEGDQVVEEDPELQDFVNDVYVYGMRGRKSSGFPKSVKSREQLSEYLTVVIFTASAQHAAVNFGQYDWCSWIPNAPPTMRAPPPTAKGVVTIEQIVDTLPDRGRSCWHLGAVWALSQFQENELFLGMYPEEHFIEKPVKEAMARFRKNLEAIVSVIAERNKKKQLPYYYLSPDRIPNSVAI
Method: HEK293 cells were obtained from ATCC (Manassas) and were cultured in Dulbecco’s Modified Eagle Medium (DMEM) supplemented with 10% fetal bovine serum. Cells were stably transfected with 5‐lipoxygenase and 5‐lipoxygenase activating protein (FLAP) as previously described.31
Transfected HEK293 cells were collected and resuspended in Hank's balanced salt solution (HBSS, Lonza) containing 1.6 mmol/L CaCl2 at a concentration of 5 × 10^5 cells/mL, and were preincubated with each compound at concentration of 1 µmol/L for 5 minutes at 37°C. Cells were then stimulated for 15 minutes at 37°C with the addition of 10 µmol/L calcium ionophore A23187 (Sigma‐Aldrich) and 10 µmol/L arachidonic acid (Cayman Chemical).28 Stimulations were stopped by adding 0.5 volume of cold CH3OH:CH3CN (1:1) containing 100 ng/mL of prostaglandin B2 (PGB2) as internal standard. Samples were stored at −20°C and analyzed for 5‐LO products using reversed‐phase high‐performance liquid chromatography (RP‐HPLC) as described previously.32
Figure 2 The structures of the tested compounds (A) and their effects on the biosynthesis of 5‐LO products in transfected HEK293 cells (B). HEK293 cells expressing 5‐LO and FLAP were incubated in presence of the indicated compounds (1 μmol/L) or their diluent (Control, 0.1% DMSO) for 5 minutes, followed by the addition of 10 μmol/L calcium ionophore A23187 and 10 μmol/L arachidonic acid for 15 minutes. Reactions were then stopped, and samples were processed for analysis of 5‐LO products using RP‐HPLC. Total 5‐LO products measured represent the sum of LTB4, its trans isomers and 5‐hydroxyeicosatetraenoic acid. Data are expressed as means ± SEM of at least three independent experiments. *Difference from control as determined using one‐way ANOVA with Dunnett's multiple comparison test (P < .05)

[2] = tested on: HepaRG cells; assay: Residual inhibition of 5‐LO product biosynthesis in blood after incubation with HepaRG cells; assay type: in vitro ADME, human; conditions: 50 µmol/L with HepaRG cells, after 60 minutes; medium added to blood, zymosan, LTB4
Method: (§1) Differentiated HepaRG cells, plated in 24 well plates, were washed with hepatocyte suspension medium (Williams E‐medium without phenol red, supplemented with 2 mmol/L Glutamax and […] HEPES) before addition of hepatocyte suspension medium (250 µL/well) containing (30 or 50 µmol/L) of the test compounds or their diluent. Cells were then incubated for 7.5, 15, 30, 60 or 90 minutes at 37°C after which the medium was removed.
In experiments where the inhibitory capacity of test compounds was to be determined after incubation with HepaRG cells, 125 µL of the hepatocyte suspension medium containing test compounds that had been collected at different time points from HepaRG cultures was added to 1 mL of heparinized blood. After a 5 minutes of preincubation, blood was then stimulated with opsonized zymosan and processed for HPLC analysis of 5‐LO metabolites as described above.
Figure 6 Stability of the test compounds for the inhibition of the biosynthesis of 5‐LO products following incubation with HepaRG cells. HepaRG cells were incubated with […] of hepatocyte suspension medium containing 50 µmol/L of test compounds for the indicated times at 37°C. Hepatocyte suspension medium (125 µL) was then removed and added to 1 mL of blood that was then incubated for 5 minutes and then stimulated with opsonized zymosan (4 mg/mL) for 30 minutes at 37°C. Blood was then centrifuged and plasma was collected and added to 1.2 mL of CH3OH:CH3CN (1:1). Samples were processed for analysis using RP‐HPLC for LTB4 quantification. Data are expressed as means ± SEM of at least three independent experiments. *Difference from time = 0, as determined using One‐way ANOVA with Dunnett's multiple comparison test (P < .05)

[3] = tested on: 5‐LO; conditions: cited from earlier work
[4] = tested on: HepaRG cells; assay: Kinetics of test compound disappearance in HepaRG cell culture (HPLC); assay type: in vitro ADME, human; conditions: 30 µmol/L, 37°C; mean (95% confidence interval), four experiments
Method: Undifferentiated cryopreserved HepaRG cells (BioPredic International) were seeded in 12 or 24 well plates at 1.1 × 10^5 and 0.55 × 10^5 cells per well, respectively. Cells were cultured for 14 days in Williams E‐medium supplemented with 1% penicillin‐streptomycin (10 000 U/mL), 10% fœtal bovine serum (FBS), 50 mg/L hydrocortisone hemisuccinate, 5 mg/L insulin and 2 mmol/L Glutamax, and the medium was renewed every 2‐3 days. After 14 days, the culture medium was replaced by the same formulation as above supplemented with 2% dimethyl sulfoxide (DMSO) to induce differentiation. Cells were considered differentiated and ready for experiments after 14 days of differentiation (28 days after seeding).
as §1
In experiments where the test compounds incubated with HepaRG cells were to be measured, the cell layer was washed with 250 µL of hepatocyte suspension medium which was then pooled with the first medium. The mixture was then added to 250 µL of ice cold CH3OH:CH3CN (1:1, vol:vol) containing 10 µmol/L of phenethyl 3,4,5‐trimethoxycinnamate as an internal standard. The resulting solution was frozen at −80°C for 2 hour to precipitate any dissolved proteins, centrifuged at 1800g and the supernatant transferred to vials and stored at −20°C until HPLC analysis.
Figure 5 Kinetics of test compound disappearance in HepaRG cell culture. (A) HepaRG cells were incubated in 250 µL of hepatocyte suspension medium containing 30 µmol/L of test compounds for the indicated times at 37°C. Supernatants were removed and added to 250 µL of ice cold CH3OH:CH3CN (1:1 vol:vol) containing 10 µmol/L of phenethyl 3,4,5‐trimethoxycinnamate as an internal standard. The cell layer was washed with 250 µL of hepatocyte suspension medium and added to the above mixture. Samples were centrifuged at 1900g and the supernatants were collected for HPLC analysis as described in the Methods. Values are means ± SEM. (B) Calculated half‐lives of the test compounds in HepaRG cell cultures. Values are means (95% confidence interval). All data are from four independent experiments TEXT PRINTED IN THE PICTURE: (B) CAPE (2): Half-life (Minutes): 4.70 (4.42 - 5.02) | (B) 7: Half-life (Minutes): 6.42 (5.72 -7.31) | (B) 5: Half-life (Minutes): 3.71 (3.67-3.74) | (B) 8: Half-life (Minutes): 6.48 (6.01-7.04) | (B) 9: Half-life (Minutes): 4.38 (4.23 - 4.55) | (B) 10: Half-life (Minutes): 11.32 (10.21- 12.71)

[5] = target: T1, 5‐LO; assay: Biosynthesis of 5‐LO products in thapsigargin‐stimulated human PMNL; assay type: cell-based; parameters: endogenous in cells; host or cells: human polymorphonuclear leukocytes isolated from heparinized blood; conditions: 5‐LO product biosynthesis in human PMNL; mean (95% confidence interval)
Method: Heparinized blood (see Ethics statement) was collected, centrifuged at 200g for 10 minutes to collect plasma, and erythrocytes were sedimented in dextran. PMNL were obtained after centrifugation on a lymphocyte separation medium cushion (density, 1.077 g/mL) (Wisent) at 900 g for 20 minutes, followed by hypotonic lysis to remove residual erythrocytes.33 PMNL were counted and resuspended at 10^7 cells/mL in HBSS supplemented with 1.6 mmol/L CaCl2 and 0.3 U/mL adenosine deaminase (Sigma‐Aldrich). PMNL were preincubated with the test compounds or their diluent (0.1% DMSO) for 5 minutes at 37°C and were then stimulated with 1 µmol/L thapsigargin (Sigma‐Aldrich) for 15 minutes at 37°C.27 Reactions were stopped by adding two volumes of CH3OH:CH3CN (1:1) containing the internal standard PGB2 (100 ng/mL), and samples were processed for RP‐HPLC analysis of 5‐LO products.
(A) The structures of CAPE (2) and its analogues investigated in this study. (B) Isolated human PMNL were incubated in presence of test compounds (1 μmol/L) or their diluent (Control, 0.1% DMSO) for 5 minutes. PMNL were stimulated with 1 μmol/L of thapsigargin for 15 minutes at 37°C. The stimulation was then stopped, and samples were processed for analysis of 5‐LO products using RP‐HPLC. Total 5‐LO products measured represent LTB4, its trans isomers, 20‐OH‐LTB4, 20‐COOH‐LTB4 and 5‐hydroxyeicosatetraenoic acid. Data are expressed as means ± SEM of at least three independent experiments. *Difference from control, as determined using one‐way ANOVA with Dunnett's multiple comparison test (P < .05)

[6] = target: T1, 5‐LO; assay: Ex vivo whole blood stimulation with opsonized zymosan, 5‐LO products; assay type: cell-based; parameters: endogenous in cells; host or cells: human polymorphonuclear leukocytes isolated from heparinized blood; conditions: 5‐LO product biosynthesis in whole blood, mean (95% confidence interval)
Method: Blood was collected in tubes containing heparin as anticoagulant. Test compounds or their diluent control (DMSO, 0.1%) were added to 1 mL of heparinized blood at the indicated concentrations and incubated for 5 minutes in a water bath at 37°C. Stimulation was initiated with the addition of 125 μL of 40 mg/mL of opsonized zymosan, samples were then gently vortexed and incubated at 37°C for 30 minutes.34 Samples were then centrifuged at 960g for 10 minutes at 4°C, plasma was removed and added to tubes containing 4 volumes of CH3OH:CH3CN (1:1) containing 100 ng/mL of PGB2 as internal standard. Samples were stored overnight at −20°C, and then centrifuged at 3300g for 10 minutes. Samples were then purified on C18 cartridges, were eluted with CH3OH, dried under nitrogen, resuspended in 46% of CH3OH:CH3CN (1:1), and analyzed using RP‐HPLC as described above.

Structure (SMILES): CC(c1cc2ccccc2s1)N(O)C(N)=O (stereo not shown) [Zileuton (1), Zileuton, reference compound]
- Inhibition of biosynthesis of 5‐LO products in transfected HEK293 cells [1]: less effective than CAPE (2)
- Inhibitory activity against 5‐LO product biosynthesis after incubation with HepaRG cells [2]: steady manner over time

Structure (SMILES): O=C(C=Cc1ccc(O)c(O)c1)NCCc1ccccc1 [amide analogue of CAPE]
- Inhibition of LT biosynthesis and 5‐LO activity [3]: reduced potency compared to CAPE

Structure (SMILES): O=C(O)/C=C/c1ccc(O)c(O)c1 [caffeic acid]
- Inhibition of LT biosynthesis and 5‐LO activity [3]: poor 5‐LO inhibitor

Structure (SMILES): O=C(C=Cc1ccccc1)OCCc1ccccc1 [cinnamic acid phenethyl ester]
- Inhibition of LT biosynthesis ([3]; at concentrations up to 10 µmol/L): do not inhibit LT biosynthesis

Structure (SMILES): O=C(/C=C/c1cccc(O)c1O)OCCc1ccccc1 [compound 3]
- Inhibition of biosynthesis of 5‐LO products in transfected HEK293 cells [1]: very good inhibitory activity

Structure (SMILES): O=C(/C=C/c1ccc(O)cc1O)OCCc1ccccc1 [compound 4]
- Inhibition of biosynthesis of 5‐LO products in transfected HEK293 cells [1]: without measurable effect; also recorded: without inhibitory activity

Structure (SMILES): O=C(/C=C/c1cc(O)cc(O)c1)OCCc1ccccc1 [compound 6]
- Inhibition of biosynthesis of 5‐LO products in transfected HEK293 cells [1]: without measurable effect; also recorded: without inhibitory activity

Structure (SMILES): COc1cc(/C=C/C(=O)OCCc2ccccc2)cc(OC)c1O [compound 9, sinapic acid phenethylester]
- Inhibitory activity against 5‐LO product biosynthesis after incubation with HepaRG cells [2]: lost all their inhibitory activity
- Half-life in HepaRG cell cultures [4]: 4.38 (4.23 - 4.55) Minutes
- pIC50 [5]: 6.54
- pIC50 [6]: 5.72

Structure (SMILES): O=C(CCc1ccc(O)c(O)c1)OCCc1ccccc1 [saturated form of CAPE (2)]
- Inhibition of 5‐LO product biosynthesis [3]: as effective
